Data taken from ChEMBL document CHEMBL1201862, “PubChem BioAssay data set” (2004).
Activity calls are given as the source filed them.

Experiments:
[1] = NIH-3T3 fibroblast cytotoxicity, dose response, cytotoxicity control, cell-based, fluorescence, Alamar Blue, secondary assay (AID 2327); assay type: functional;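 also: NIH-3T3 mouse fibroblasts cultured with fluconazole at 8 µg/mL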
[2] = A Cell Based Secondary Assay to Explore Cytotoxicity in THP-1 Cells of Compounds that Modulate Mycobacterium tuberculosis in Media Containing Glycerol versus Media without Glycerol (2).; assay type: functional
[3] = Vero cell cytotoxicity, cytotoxicity control for M. tuberculosis inhibitor project, purified and synthesized samples, set 3 (AID 504684); assay type: functional
[4] = system: INS1; test: beta cell apoptosis inhibitors, cytokine rescue, dose response, luminescence, retest (AID 449756); assay type: functional, cell-based; conditions: Rattus norvegicus;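 also: cell death triggered by IL-1 beta plus TNF-alpha plus IFN-gamma mixture; protective hits raise ATP signal compared with cytokine alone wells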
[5] = molecular target: ATP-dependent molecular chaperone HSP82 (Candida albicans (strain WO-1) (Yeast), UniProt C4YTQ8); test: loss of DOC-induced GRE-beta-galactosidase reporter signal, dose response, Hsp90 inhibitor project, S. cerevisiae, luminescence (AID 2400); assay type: functional, cell-based;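 also: beta-galactosidase luminescence from glucocorticoid response element reporter as proxy for Hsp90 function; inhibitor potency where signal loss means Hsp90 inhibition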
[6] = microbe, parasite or virus in culture; assay type: functional; conditions: Mycobacterium tuberculosis
[7] = A Cell Based Secondary Assay to Explore Cytotoxicity in HepG2 Cells of Compounds that Modulate Mycobacterium tuberculosis in Media Containing Glycerol versus Media without Glycerol (2).; assay type: functional
[8] = molecular target: T1, Serine/threonine-protein phosphatase (Candida dubliniensis (strain CD36 / CBS 7987 / NCPF 3949 / NRRLY-17841) (Yeast), UniProt B9W6M3); test: calcineurin pathway inhibitors in yeast reporter, dose response, S. cerevisiae, CDRE-lacZ, luminescence, secondary (AID 2388); assay type: functional, cell-based;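 also: yeast reporter cells carrying a calcineurin-responsive lacZ construct stimulated with calcium chloride; luminescent beta-galactosidase reporter signal in whole cells rather than isolated phosphatase activity; potency for inhibition where a drop in reporter signal means calcineurin blockade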
T1 sequence (B9W6M3 whole entry): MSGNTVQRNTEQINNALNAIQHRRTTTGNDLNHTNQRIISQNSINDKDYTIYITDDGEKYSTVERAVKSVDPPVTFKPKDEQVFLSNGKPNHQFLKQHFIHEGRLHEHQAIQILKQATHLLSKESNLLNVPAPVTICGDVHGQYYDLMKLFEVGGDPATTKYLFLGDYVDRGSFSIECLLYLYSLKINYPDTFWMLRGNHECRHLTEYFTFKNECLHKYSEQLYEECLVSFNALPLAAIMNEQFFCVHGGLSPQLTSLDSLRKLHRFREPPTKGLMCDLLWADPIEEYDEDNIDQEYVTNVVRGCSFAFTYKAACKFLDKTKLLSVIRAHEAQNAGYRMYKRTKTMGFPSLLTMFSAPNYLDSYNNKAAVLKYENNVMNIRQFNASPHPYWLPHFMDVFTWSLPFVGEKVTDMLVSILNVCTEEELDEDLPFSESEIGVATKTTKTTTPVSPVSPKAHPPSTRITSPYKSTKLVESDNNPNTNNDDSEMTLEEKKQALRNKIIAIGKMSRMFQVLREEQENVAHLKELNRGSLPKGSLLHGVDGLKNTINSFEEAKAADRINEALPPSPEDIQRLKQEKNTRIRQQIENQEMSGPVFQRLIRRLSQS

[9] = C. albicans growth with fluconazole, confirmation, fluorescence, retest (AID 2467); assay type: functional, cell-based
[10] = system: HEK293; test: HEK cell cytotoxicity by LDH release, dose response, cytotoxicity control for IDE activator project, fluorescence, HEK cells (AID 588440); assay type: functional, cell-based; conditions: Homo sapiens;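 also: cytotoxicity by LDH release measuring loss of membrane integrity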
[11] = molecular target: T2, Insulin-degrading enzyme (Homo sapiens, UniProt P14735); test: activators of recombinant IDE enzyme, dose response, counter-screen for IDE activator project, biochemical, fluorescence polarization (AID 588681)
T2 sequence (P14735 whole entry): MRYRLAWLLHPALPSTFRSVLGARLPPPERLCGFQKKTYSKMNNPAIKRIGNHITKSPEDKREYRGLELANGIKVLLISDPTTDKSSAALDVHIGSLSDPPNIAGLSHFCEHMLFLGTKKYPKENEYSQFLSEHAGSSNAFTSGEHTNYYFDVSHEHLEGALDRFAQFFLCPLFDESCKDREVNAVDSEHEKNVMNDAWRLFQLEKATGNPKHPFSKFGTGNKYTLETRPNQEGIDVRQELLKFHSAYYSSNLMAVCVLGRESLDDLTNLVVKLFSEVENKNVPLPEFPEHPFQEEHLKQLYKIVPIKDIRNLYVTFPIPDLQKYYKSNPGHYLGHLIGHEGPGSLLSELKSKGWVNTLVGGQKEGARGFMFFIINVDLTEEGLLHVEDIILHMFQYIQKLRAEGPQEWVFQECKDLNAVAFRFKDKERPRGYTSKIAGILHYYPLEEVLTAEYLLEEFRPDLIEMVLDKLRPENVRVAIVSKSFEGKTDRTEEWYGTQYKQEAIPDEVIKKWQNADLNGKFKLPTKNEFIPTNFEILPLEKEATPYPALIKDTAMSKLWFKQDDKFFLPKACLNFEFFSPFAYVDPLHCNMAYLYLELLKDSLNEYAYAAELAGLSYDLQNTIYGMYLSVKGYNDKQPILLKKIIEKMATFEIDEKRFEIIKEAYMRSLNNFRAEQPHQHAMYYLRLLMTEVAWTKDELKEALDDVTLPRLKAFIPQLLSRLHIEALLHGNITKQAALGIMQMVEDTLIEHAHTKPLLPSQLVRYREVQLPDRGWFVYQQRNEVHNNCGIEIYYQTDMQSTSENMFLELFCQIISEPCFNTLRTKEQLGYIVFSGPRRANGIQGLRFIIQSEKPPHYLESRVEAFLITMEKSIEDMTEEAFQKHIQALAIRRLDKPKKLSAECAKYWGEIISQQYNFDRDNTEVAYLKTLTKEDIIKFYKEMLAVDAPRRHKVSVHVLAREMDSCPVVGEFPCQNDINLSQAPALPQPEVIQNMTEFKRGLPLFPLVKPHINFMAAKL

[12] = molecular target: T2, Insulin-degrading enzyme; test: activators of endogenous IDE in HEK cells, dose response, cell-based, fluorescence polarization (AID 588439); assay type: functional
[13] = system: HEK293; test: optical interference in Abeta FP readout, dose response, artefact control for IDE activator project, biochemical, fluorescence polarization (AID 588442); assay type: functional, cell-based; conditions: Homo sapiens
[14] = molecular target: T3, Sentrin-specific protease 6 (Homo sapiens, UniProt Q9GZR1); test: SENP6 protease inhibitors, SAR follow-up, biochemical, luminescence, set 2 (AID 588598); assay type: functional
T3 sequence (Q9GZR1 whole entry): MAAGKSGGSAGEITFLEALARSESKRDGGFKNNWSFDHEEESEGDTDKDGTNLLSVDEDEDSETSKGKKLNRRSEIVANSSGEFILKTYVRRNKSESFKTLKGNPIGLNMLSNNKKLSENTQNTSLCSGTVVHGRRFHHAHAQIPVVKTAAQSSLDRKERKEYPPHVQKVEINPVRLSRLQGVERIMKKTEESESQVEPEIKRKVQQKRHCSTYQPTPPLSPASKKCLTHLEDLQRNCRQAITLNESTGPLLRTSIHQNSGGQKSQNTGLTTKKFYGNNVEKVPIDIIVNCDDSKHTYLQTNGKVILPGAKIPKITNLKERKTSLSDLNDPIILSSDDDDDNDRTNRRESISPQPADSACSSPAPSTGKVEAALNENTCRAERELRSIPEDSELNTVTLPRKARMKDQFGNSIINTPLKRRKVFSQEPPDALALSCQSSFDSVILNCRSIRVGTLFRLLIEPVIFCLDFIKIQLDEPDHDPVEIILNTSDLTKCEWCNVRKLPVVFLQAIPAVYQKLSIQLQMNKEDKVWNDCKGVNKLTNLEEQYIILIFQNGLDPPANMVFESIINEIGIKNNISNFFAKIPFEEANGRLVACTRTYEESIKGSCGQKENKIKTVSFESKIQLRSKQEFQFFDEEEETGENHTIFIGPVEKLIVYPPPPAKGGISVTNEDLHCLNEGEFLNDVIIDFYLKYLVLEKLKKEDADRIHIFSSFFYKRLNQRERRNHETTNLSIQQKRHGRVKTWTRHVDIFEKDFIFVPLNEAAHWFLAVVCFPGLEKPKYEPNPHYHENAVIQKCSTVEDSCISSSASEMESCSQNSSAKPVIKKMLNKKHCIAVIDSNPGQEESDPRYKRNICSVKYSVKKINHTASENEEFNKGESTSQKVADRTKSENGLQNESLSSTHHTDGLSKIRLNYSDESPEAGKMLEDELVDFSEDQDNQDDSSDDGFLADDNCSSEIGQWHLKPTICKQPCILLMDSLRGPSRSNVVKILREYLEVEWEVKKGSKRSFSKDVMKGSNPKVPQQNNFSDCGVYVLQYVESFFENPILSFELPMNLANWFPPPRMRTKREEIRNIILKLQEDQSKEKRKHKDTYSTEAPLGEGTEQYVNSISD

[15] = molecular target: T4, Sentrin-specific protease 8 (Homo sapiens, UniProt Q96LD8); test: SENP8 protease inhibitors, SAR follow-up, biochemical, luminescence, set 2 (AID 588601); assay type: functional
T4 sequence (Q96LD8 whole entry): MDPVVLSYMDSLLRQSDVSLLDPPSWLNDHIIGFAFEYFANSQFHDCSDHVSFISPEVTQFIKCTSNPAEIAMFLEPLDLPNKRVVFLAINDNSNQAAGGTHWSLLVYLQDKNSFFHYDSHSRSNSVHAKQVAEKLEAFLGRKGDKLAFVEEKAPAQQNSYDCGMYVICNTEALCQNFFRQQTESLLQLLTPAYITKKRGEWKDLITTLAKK

[16] = molecular target: T5, Sentrin-specific protease 7 (Homo sapiens, UniProt Q9BQF6); test: SENP7 protease inhibitors, SAR follow-up, biochemical, luminescence, set 2 (AID 588600); assay type: functional
T5 sequence (Q9BQF6 whole entry): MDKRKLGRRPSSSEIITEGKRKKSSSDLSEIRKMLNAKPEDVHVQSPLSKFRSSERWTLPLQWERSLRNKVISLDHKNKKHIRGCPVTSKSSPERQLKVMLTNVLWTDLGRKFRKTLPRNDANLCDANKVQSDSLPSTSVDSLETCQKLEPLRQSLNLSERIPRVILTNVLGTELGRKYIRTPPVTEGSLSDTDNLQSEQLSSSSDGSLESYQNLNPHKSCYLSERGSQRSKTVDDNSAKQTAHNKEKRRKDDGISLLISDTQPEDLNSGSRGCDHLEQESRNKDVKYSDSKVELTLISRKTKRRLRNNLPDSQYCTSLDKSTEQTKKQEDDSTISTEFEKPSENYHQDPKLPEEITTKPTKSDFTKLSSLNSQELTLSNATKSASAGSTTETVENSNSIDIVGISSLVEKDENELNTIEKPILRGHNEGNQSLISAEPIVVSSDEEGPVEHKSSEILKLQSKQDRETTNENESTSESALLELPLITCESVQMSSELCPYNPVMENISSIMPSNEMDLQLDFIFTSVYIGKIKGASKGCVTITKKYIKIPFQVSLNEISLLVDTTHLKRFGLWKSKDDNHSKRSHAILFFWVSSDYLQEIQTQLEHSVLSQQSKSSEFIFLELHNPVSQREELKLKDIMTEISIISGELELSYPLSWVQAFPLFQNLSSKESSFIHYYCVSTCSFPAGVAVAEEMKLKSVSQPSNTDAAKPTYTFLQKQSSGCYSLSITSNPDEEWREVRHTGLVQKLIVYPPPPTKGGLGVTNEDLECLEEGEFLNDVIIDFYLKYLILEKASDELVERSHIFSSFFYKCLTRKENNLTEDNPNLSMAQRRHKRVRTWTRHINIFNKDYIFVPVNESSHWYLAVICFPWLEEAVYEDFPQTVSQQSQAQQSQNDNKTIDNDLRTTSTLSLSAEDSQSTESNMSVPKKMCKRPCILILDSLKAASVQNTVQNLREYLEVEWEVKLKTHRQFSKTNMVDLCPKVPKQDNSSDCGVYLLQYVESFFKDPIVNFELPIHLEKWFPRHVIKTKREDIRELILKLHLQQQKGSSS

[17] = molecular target: T6, Caspase-3 (Homo sapiens, UniProt P42574); test: caspase-3 inhibitors as off-family protease, SAR follow-up, selectivity assay for SENP protease inhibitor project, biochemical, luminescence, set 2 (AID 588599); assay type: functional
T6 sequence (P42574 whole entry): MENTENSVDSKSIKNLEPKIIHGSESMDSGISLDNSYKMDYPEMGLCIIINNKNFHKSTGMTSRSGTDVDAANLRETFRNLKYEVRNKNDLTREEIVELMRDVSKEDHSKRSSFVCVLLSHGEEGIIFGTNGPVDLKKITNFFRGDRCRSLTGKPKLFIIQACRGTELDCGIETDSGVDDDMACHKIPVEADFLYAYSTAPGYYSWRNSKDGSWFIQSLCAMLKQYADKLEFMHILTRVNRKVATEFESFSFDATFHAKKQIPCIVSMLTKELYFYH

[18] = molecular target: T3, Sentrin-specific protease 6; test: SAR Analysis of small molecule inhibitors of Sentrin-specific protease 6 (SENP6) using a Luminescent assay. [Related pubchem assays (depositor defined):AID2582, AID2599]; assay type: functional
[19] = molecular target: T4, Sentrin-specific protease 8; test: SENP8 protease inhibitors, SAR follow-up, biochemical, luminescence (AID 504501); assay type: functional
[20] = molecular target: T6, Caspase-3; test: SAR Analysis of small molecule inhibitors of Sentrin-specific proteases (SENPs) using a Caspase-3 Selectivity assay. [Related pubchem assays (depositor defined):AID2540, AID2599, AID434973, AID489001]; assay type: functional
[21] = molecular target: T5, Sentrin-specific protease 7; test: SENP7 protease inhibitors, SAR follow-up, biochemical, luminescence (AID 504497); assay type: functional

Sequence of ATP-dependent molecular chaperone HSP82 (C4YTQ8 whole entry): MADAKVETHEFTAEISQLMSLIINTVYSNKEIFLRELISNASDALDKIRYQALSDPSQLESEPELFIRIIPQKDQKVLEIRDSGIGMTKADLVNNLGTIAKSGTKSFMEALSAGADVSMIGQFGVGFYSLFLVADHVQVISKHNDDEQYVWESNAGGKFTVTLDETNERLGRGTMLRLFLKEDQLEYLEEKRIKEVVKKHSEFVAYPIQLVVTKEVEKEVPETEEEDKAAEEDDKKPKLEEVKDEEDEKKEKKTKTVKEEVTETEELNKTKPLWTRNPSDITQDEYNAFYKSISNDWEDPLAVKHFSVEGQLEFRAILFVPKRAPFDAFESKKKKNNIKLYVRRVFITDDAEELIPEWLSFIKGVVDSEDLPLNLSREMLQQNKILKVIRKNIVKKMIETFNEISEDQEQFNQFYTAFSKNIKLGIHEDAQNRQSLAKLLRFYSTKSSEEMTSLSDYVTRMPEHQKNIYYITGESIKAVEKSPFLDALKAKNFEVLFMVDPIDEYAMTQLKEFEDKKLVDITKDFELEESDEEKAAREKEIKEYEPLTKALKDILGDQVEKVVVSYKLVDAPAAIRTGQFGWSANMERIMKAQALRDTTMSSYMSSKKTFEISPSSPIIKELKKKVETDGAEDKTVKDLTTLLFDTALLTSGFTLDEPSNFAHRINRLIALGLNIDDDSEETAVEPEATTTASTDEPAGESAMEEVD

SMILES	IC50 [14]	IC50 [15]	IC50 [16]	IC50 [17]	IC50 [18]	IC50 [19]	IC50 [20]	IC50 [21]	other results
Cc1ccc2ccc3ccc(C)nc3c2n1 [NEOCUPROINE]	–	–	–	–	–	–	–	–	EC50 [1]: 147 µM (active); CC50 [2]: < 0.2 µM (active); CC50 [3]: 1.23 µM (active); AC50 [4]: < 0.195 µM (active); EC50 [5]: > 150 µM (inactive); CC50 [6]: 36.4 µM (active); CC50 [7]: 0.21 µM (active); EC50 [8]: > 180 µM (inactive); EC50 [9]: 0.133 µM (active)
O=C(CN1CCN(CN2C(=O)NC3(CCCCCC3)C2=O)CC1)Nc1ccc(F)cc1	–	–	–	–	–	–	–	–	IC50 [10]: > 89.2 µM (inactive); EC50 [11]: > 54.7 µM (inactive); EC50 [12]: > 54.7 µM (inactive); EC50 [13]: > 55.9 µM (inactive)
Cc1[nH]c2ccccc2c1C(=O)C(=O)NCc1cccnc1	> 99 µM (inactive)	> 99 µM (inactive)	> 99 µM (inactive)	> 99 µM (inactive)	–	–	–	–	–
CCS(=O)(=O)c1cccc(C(=O)Nc2nc3ccc(Br)cc3s2)c1	–	–	–	–	> 99 µM (inactive)	> 99 µM (inactive)	> 99 µM (inactive)	> 99 µM (inactive)	–
Cc1sc2ncnc(N3CCC(C(=O)Nc4nc5c(F)cc(F)cc5s4)CC3)c2c1C	> 99 µM (inactive)	> 99 µM (inactive)	> 99 µM (inactive)	> 99 µM (inactive)	–	–	–	–	–
N#Cc1c(NC(=O)c2cc3ncc(Br)cn3n2)sc2c1CCCC2	–	–	–	–	> 99 µM (inactive)	> 99 µM (inactive)	> 99 µM (inactive)	> 99 µM (inactive)	–
